Experimental data from patent publication US9980490B1, “Method of disinfecting bacterial contaminated surfaces or removing bacteria from contaminated surfaces” (priority 2014, dated 2018).
Where two headings read alike, the source gives them in different places.

Key:
[1] = Highest aqueous concentration before salt precipitates; assay type: physicochemical; conditions: room temperature; above this insoluble salt precipitates
Text: The final salt (soap) product, ammonium nonanoate, is made by neutralization by mixing the oleic-derived nonanoic acid with an equal molar amount of ammonia dissolved in water until a clear one-phase solution with a pH range of 7.5 to 8.5 occurs. At this point all of the acid is converted to ammonium salt: none remains in the product. […] The final concentration of ammonium nonanoate depends on the amount of water used. The highest concentration that can be made is approximately 40% since above this concentration at room temperature, insoluble salt precipitates as a solid.

[2] = tested on: pseudomonas aeruginosa (gram negative); test: Suspension time-kill test of aqueous ammonium nonanoate; assay type: cell-based; conditions: 2% aqueous solution, 1 minute
Procedure: (§1) There were no other ingredients in these solutions except the ammonium salts and water. […] Suspensions of test bacteria were exposed to the 1% and 2% ammonium nonanoate solutions for specified exposure times at ambient temperature. After exposure, aliquots of the suspensions were transferred to neutralizer and assayed for survivors. Appropriate culture purity, neutralizer sterility, test population, and neutralization confirmation controls were performed. […] This is a reduction of live bacteria of >99.999%.

Staphylococcus aureous = test: as above; assay type: cell-based; conditions: 2% aqueous solution, 2 minutes
Procedure: as §1

mammals and birds = conditions: EPA Biochemical Division registration as bioherbicide; cited from earlier work
[3] = tested on: Escherichia coli (gram negative); test: Suspension time-kill test of aqueous ammonium nonanoate, survivors assayed after neutralization; assay type: cell-based; conditions: 1% aqueous solution, 1 minute exposure, ambient temperature
Procedure: as §1

[4] = tested on: Enterococcus faecalis (gram positive); test: as above; assay type: cell-based; conditions: 1% aqueous solution, 1 minute exposure, ambient temperature
Procedure: as §1

[5] = according to the EPA; cited from earlier work
Candida albicans = conditions: even numbered C8 to C18 fatty acids screened; cited from earlier work
Streptococcus Group A = conditions: even numbered C8 to C18 fatty acids screened; cited from earlier work
Staphlycoccus aureous = conditions: even numbered C8 to C18 fatty acids screened; cited from earlier work
human skin = conditions: 12% solution, 48 hr. closed patch test; cited from earlier work
rats [6] = conditions: cited from earlier work; for LD50: oral, Federal Register
rats [7] = conditions: cited from earlier work
mice = conditions: oral, Federal Register; cited from earlier work

CCCCCCCCC(=O)O.N [ammonium nonanoate]
highest concentration that can be made in water [1]: approximately 40% | reduction in population [2]: > 99.999% | reduction in population (Staphylococcus aureous): > 99.999% | toxicity to mammals and birds (mammals and birds): non-toxic | log reduction in the population [3]: 5 log | reduction of live bacteria [3]: > 99.999% | log reduction in the population [4]: 5 log | reduction of live bacteria [4]: > 99.999% | time to biodegradation after formation [5]: ≤ 24 h

CCCCCCCCCC(=O)O [capric acid]
antimicrobial activity relative to other fatty acids tested (Candida albicans): highest activity | antimicrobial activity relative to other fatty acids tested (Streptococcus Group A): highest activity | antimicrobial activity relative to other fatty acids tested (Staphlycoccus aureous): highest activity

CCCCCCCCC(=O)O [nonanoic acid]
irritation on human skin (human skin): no irritation | oral LD50 (rats [6]; male rats): > 9,000 mg/kg | LD50 (rats [6]; rats, indicated by no death at 3,200 mg/kg): over 3,200 mg/kg | LD50 (rats [6]; rats): 5,000 mg/kg | oral LD50 (rats [6]; rats, Patty's Industrial Hygiene and Toxicology): 15 g/kg | death of rats (rats [6]; undiluted, oral, 3,200 mg/kg body weight, Federal Register Vol. 69 No. 52 p. 12672): did not cause death of any of the rats | mortality (rats [7]; 0.46 mg/liter as an aerosol for four hours): no mortality | symptoms of toxicity (rats [7]; atmospheric concentration (125 ppm), 6 hours): no symptoms of toxicity | LD50 (mice): 5,000 mg/kg
